Here are results for 1 compound from patent publication EP1344776A1, “5- 2-hydroxy-3-[1-(3-trifluoromethylphenyl)-cyclopropyl]-propionylamino -phtalide and 6- 2-hydroxy-3-[1-(3-trifluoromethylphenyl)-cyclopropyl]-propionylamino -4-methyl-2,3-benzoxazin-1-one derivatives with progesterone receptor modulating activity for use in fertility control, hormone replacement …” (Schering Aktiengesellschaft, priority 2002, dated 2003).

One test addresses T1, androgen receptor (AR) (Homo sapiens, UniProt P10275).
T1 sequence (P10275 1-920): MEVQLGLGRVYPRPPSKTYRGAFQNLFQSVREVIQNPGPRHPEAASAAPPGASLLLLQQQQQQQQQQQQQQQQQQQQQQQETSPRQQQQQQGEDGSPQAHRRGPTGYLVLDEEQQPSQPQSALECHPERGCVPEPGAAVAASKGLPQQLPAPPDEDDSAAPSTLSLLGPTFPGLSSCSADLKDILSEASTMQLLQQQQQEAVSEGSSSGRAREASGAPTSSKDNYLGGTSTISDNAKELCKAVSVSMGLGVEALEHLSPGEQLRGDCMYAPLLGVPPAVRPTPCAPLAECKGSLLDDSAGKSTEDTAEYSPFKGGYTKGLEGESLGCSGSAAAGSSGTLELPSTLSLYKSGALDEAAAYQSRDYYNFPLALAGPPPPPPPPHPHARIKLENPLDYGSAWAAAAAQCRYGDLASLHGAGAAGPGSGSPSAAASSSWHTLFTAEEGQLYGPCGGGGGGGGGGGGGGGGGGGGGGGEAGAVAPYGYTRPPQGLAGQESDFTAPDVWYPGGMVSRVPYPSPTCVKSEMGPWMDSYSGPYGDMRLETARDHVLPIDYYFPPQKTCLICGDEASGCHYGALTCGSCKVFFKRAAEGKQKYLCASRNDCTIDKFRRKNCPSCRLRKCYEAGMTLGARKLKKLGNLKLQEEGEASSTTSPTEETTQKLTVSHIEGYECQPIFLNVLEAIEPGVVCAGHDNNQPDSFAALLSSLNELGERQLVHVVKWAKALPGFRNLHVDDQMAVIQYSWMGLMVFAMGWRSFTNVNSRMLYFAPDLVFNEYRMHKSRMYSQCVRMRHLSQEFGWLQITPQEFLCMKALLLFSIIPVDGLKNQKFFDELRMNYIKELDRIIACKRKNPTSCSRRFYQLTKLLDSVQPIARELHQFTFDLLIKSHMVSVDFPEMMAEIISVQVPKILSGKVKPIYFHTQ
The test can be described thus: Androgen receptor binding.

The subject of the next test is orchidectomized rats. Description: Androgenic / anti-androgenic activity in orchidectomized rats (prostate weight, seminal vesicle). In kind it is in vivo, rat. The conditions noted are these: prostate weight and seminal vesicle. The text has this:
The absence of androgenic as well as anti-androgenic activity in vivo was confirmed by tests performed with orchidectomized rats (change in prostate weight and in the seminal vesicle).

In another test the test system is hPR-A. The test can be described thus: PR-A transcription assay (MTV-LUC reporter, SK-N-MC cells). In kind it is cell-based, human. The conditions noted are these: 10^-7 mol/l test compound relative to R5020 10^-7 mol/l, 24 hours, 0.1 µM. How it is done: (§1) The method for screening for PR isoform-specific progestins according to the present invention is carried out with first and second SK-N-MC cells stably transfected with a plasmid expressing the hPR-A (first cells) or the hPR-B (second cells) and the LUC reporter gene linked to the hormonally responsive MTV promoter.
(§2) For the transcription assay, the cells are seeded onto 96-well dishes (2x 10^4 cells/dish) and cultured in a medium as described above, with the exception that the FCS is replaced by a 3 % charcoal stripped FCS. 48 hours later, cells are contacted with prediluted test compounds. For determination of agonistic activity, cells are cultured in the presence of increasing concentrations (10^-6 to 10^-11 mol/l) of test progestins. As a positive control for reporter gene induction cells are treated with 10^-6 to 10^-11 mol/l R5020 (promegestone). As a negative control for reporter gene induction, cells are cultured in 1 % ethanol.
(§3) Evaluation of the response gives the efficacy [%], and evaluation of the EC50 values gives the potency [nM]. Calculation of the agonistic activity is conducted as follows:
(§4) The LUC activity [%] for the measured data points is calculated as follows: relative LUC activity [%] = 100 x((response 10)^-6 (to 10)^-11 mol/l test compound - CO)/(CI - CO) [formula] wherein CI = 100 % stimulation (R5020, 10^-7 mol/l) and CO = 0 % stimulation (ethanol, 1 %).
(§5) Thus, the efficacy [%] is calculated according to: efficacy [%] = 100 x((response 10)^-7 mol/l test compound - CO)/(CI - CO) [formula]
(§6) The potency [nM], i.e. the EC50, is determined graphically.

Test [1] has as its target T2, glucocorticoid receptor (GR) (Homo sapiens, UniProt P04150).
T2 sequence (P04150 1-777): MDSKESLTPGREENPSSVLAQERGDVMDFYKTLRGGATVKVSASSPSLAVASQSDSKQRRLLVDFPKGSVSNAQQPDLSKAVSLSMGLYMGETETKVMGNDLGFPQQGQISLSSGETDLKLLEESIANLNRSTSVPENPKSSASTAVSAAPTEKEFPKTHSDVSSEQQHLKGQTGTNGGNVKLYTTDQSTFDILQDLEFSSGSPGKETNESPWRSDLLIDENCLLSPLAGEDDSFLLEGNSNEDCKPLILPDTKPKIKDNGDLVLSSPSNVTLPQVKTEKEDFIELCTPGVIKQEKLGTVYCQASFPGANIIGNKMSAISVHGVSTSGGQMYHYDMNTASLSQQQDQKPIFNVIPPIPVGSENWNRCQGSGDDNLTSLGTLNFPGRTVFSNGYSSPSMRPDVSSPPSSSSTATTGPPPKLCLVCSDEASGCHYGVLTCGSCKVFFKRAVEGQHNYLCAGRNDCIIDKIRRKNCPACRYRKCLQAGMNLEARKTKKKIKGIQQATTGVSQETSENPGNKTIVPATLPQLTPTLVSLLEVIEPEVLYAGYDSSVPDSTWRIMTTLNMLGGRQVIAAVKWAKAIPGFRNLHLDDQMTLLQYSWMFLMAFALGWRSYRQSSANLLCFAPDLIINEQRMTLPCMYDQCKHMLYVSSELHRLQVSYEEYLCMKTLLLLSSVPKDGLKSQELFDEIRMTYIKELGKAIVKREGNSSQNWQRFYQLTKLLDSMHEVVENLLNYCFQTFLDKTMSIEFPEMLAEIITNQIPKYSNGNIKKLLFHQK
The test can be described thus: Glucocorticoid receptor binding.

In the next test the test system is hPR-B. Description: PR-B transcription assay (MTV-LUC reporter, SK-N-MC cells). In kind it is cell-based, human. Conditions: 10^-7 mol/l test compound relative to R5020 10^-7 mol/l, 24 hours, 0.1 µM. How it is done:
as §1
The cells are cultured in Minimum Essential Medium with Earl's Salts (S-MEM, without L-glutamine; Gibco BRL, no. 21090-022), supplemented with 10 % fetal calf serum (FCS), penicillin 100U/streptomycin 100 µg/ml (Biochrom, no. A2213), L-glutamine 4 mmol/l (Gibco BRL, no. 25030-024), sodium pyruvate 1 mmol/l (Biochrom, no. L0473) and 1x non-essential amino acids (Biochrom, no. K0293) at a temperature of 37 °C and in an atmosphere of 5 % carbon dioxide.
as §2
After incubation with test progestins for 24 hours, the medium is removed and cells are lysed with 20 µl of lysis buffer (Luciferase Assay System E 153A; Promega) and under agitation of the plate for 10 min. After addition of 30 µl of luciferase reagent (Luciferase Assay System E 151A + 152A; Promega) within 30 seconds per plate, the activity of the luciferase reporter gene product is determined in the cell lysates by means of a Microlite ML 3000 microtiter plate luminometer (Dynatech) in cycle mode.
as §3, §4, §5, §6

For `O=C1OCc2cc(NC(=O)C(O)(CC3(c4cc(C(F)(F)F)ccc4F)CC3)C(F)(F)F)ccc21` (single isomer, unassigned; (+)) [((+)-1), (+)-5-{2-hydroxy-3-[1-(2-fluoro-5-trifluoromethylphenyl)-cyclopropyl]-2-trifluoromethyl-propionylamino}-phthalide], the “binding affinity for the androgen receptor (AR)” value on androgen receptor (AR) is “moderate”. In addition, in the test on orchidectomized rats, the “androgenic activity in vivo” value is recorded as “no androgenic” and the “anti-androgenic activity in vivo” value is recorded as “no anti-androgenic activity”. In the test on hPR-A, this compound returned a PR-A agonism efficacy of 88.7%. Further, the “affinity for the glucocorticoid receptor (GR)” value in test [1] is recorded as “very high”. In the test with hPR-B, the PR-B agonism efficacy was found to be 25%.
